In PubChem BioAssay AID1745863 one finds EC50 data, which are given here for three molecules.

In general, pEC50 refers to −log10 of the EC50, conventionally taken in molar units.

Structures are written as SMILES. pEC50: −log10 of the molar value.

The experiment deals with Cationic amino acid transporter 3 (Homo sapiens) (UniProt Q8WY07). Briefly: CAT-3 electrogenic transport substrate activity – HEK293 JumpIn overexpressing cells, membrane potential dye, dose response (AID 1745863). The conditions noted are these: HEK293 JumpIn SLC7A3 OE, membrane potential dye FLIPR.
Sequence of Cationic amino acid transporter 3 (Homo sapiens) (Q8WY07 whole entry, looked up): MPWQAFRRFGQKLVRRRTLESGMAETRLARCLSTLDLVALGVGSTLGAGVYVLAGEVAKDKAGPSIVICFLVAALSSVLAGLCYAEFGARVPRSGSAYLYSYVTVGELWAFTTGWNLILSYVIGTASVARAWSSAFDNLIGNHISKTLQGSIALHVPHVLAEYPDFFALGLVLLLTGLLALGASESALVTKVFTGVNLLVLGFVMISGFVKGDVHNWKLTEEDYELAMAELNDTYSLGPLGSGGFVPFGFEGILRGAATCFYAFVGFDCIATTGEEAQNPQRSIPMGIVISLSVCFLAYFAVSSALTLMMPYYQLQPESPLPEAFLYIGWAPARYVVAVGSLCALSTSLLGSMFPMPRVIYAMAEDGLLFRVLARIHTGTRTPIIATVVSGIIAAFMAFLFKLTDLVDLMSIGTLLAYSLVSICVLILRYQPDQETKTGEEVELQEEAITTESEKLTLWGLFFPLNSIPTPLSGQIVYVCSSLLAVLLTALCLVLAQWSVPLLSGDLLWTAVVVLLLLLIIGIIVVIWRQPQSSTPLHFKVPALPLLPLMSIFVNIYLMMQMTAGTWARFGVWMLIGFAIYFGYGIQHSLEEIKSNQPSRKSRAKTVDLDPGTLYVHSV
Regarding `NC(N)=NCCC[C@H](N)C(=O)O`, the pEC50 was 3.55. In the case of `NCCCC[C@H](N)C(=O)O` it was 3.80; in that of `NCCC[C@H](N)C(=O)O`, 3.63.
